Measurements from patent publication US12551475B2, “Methods and compositions for treating RNA viral infections” (Model Medicines, Inc., priority 2020, dated 2026).
pEC50, pIC50, pKi: −log10 of the molar value. Read-outs that look alike come from different tables or passages of the source.

What was measured:
[1] = test system: adhesion of HuT 78 cells to ICAM-1; settings: cited from earlier work
[2] = target: T1, LFA-1 interaction with ICAM-1 (Homo sapiens, UniProt P05107+P20701); settings: Jurkat T cells; cited from earlier work
T1 construct: endogenous in cells; host or cells: Jurkat T cells
T1 sequence (P20701 26-1170): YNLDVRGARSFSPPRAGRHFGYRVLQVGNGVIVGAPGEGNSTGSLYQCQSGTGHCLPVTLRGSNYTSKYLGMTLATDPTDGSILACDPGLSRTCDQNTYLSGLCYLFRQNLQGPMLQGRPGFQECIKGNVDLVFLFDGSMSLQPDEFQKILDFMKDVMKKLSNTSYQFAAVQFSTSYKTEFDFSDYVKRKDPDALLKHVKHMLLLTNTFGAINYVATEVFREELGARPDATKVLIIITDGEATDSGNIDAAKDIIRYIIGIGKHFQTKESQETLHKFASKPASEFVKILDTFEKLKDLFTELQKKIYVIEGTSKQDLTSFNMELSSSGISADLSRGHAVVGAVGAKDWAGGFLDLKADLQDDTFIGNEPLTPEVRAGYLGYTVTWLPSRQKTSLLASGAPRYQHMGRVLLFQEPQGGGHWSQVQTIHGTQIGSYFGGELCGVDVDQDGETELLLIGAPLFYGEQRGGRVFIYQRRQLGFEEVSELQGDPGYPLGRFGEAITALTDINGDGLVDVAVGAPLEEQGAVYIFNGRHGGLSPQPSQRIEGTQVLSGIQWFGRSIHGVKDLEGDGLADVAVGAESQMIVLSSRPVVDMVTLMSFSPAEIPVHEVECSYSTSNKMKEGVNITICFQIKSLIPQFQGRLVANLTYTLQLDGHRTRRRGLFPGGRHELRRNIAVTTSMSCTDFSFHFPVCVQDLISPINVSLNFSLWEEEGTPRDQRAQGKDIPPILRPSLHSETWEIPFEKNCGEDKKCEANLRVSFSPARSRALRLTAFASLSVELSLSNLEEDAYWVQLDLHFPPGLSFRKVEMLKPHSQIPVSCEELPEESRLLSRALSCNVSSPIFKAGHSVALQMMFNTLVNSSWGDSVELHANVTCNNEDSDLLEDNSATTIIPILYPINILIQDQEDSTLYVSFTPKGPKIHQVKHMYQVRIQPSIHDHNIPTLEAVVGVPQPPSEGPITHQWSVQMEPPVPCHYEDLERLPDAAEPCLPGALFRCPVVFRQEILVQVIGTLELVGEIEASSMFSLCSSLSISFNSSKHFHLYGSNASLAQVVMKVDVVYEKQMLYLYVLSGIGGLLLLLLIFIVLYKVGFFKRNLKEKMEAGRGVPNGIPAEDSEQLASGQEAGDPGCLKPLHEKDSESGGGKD
T1 sequence (P05107 23-769): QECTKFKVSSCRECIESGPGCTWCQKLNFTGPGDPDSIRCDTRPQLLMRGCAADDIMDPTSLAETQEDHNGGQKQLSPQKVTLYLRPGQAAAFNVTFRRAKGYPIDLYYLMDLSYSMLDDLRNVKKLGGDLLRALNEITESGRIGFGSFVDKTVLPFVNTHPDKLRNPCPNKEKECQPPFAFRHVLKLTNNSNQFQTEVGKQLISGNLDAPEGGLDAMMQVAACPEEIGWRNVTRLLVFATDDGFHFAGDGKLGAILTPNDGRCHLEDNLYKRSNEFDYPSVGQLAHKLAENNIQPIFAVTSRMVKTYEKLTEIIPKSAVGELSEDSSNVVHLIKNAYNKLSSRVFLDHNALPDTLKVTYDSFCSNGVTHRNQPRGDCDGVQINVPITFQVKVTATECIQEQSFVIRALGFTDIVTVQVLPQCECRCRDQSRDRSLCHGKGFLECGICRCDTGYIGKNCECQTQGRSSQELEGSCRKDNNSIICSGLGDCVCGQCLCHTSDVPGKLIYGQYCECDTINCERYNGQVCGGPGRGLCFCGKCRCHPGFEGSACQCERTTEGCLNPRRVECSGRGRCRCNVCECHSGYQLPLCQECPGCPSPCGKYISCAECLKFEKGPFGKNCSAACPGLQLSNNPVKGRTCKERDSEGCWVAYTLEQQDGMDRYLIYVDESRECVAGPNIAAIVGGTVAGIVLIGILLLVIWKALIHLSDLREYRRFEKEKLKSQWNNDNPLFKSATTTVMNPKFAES

[3] = test system: BxPC-3 cancer cells; settings: cited from earlier work
[4] = test system: MP-2 cancer cells; settings: cited from earlier work
[5] = test system: L1210 cancer cells; settings: cited from earlier work
[6] = test system: CEM cancer cells; settings: cited from earlier work
[7] = test system: HeLa-ACE2 cells; assay: Uninfected host cell cytotoxicity counter screen; format: cell-based, human; settings: uninfected HeLa-ACE2, 24 h
Protocol: (§1) Compounds were acoustically transferred into 1,536-well clear plates (Greiner Part. No. 789091). HeLa-ACE2 cells were maintained as described for the infection assay and seeded in the assay-ready plates at 400 cells/well in DMEM with 2% FBS and plates were incubated for 24 hours at 37 5% CO2. To assess cell viability, the Image-iT DEAD green reagent (Thermo Fisher) was used according to manufacturer instructions. Cells were fixed with 4% paraformaldehyde, and counterstained with DAPI. Fixed cells were imaged using the ImageXpress Micro Confocal High-Content Imaging System (Molecular Devices) with a 10× objective, and total live cells per well quantified in the acquired images using the Live Dead Application Module (MetaXpress).
(§2) Image analysis was carried out with MetaXpress (version 6.5.4.532). Primary in vitro screen and the host cell cytotoxicity counter screen data were uploaded to Genedata Screener, Version 16.0.3-Standard. Data were normalized to neutral (DMSO) […] inhibitor controls (2.5 μM remdesivir for antiviral effect and 10 μM puromycin for infected host cell toxicity). For the uninfected host cell cytotoxicity counter screen 40 μM puromycin (Sigma) was used as the positive control. For dose response experiments compounds were tested in technical triplicates on different assay plates and dose curves were fitted with the four parameter Hill Equation. Technical replicate data were analyzed using median condensing.

[8] = mice; cited from earlier work
[9] = test system: SARS-CoV-2; settings: for Hill coefficient (Nh): slope of the dose response curve
[10] = in vivo, cited from earlier work
[11] = test system: SARS-CoV-2; assay: microbe, parasite or virus in culture; settings: for pEC50: Severe acute respiratory syndrome coronavirus 2, HeLa-ACE2, 24 h; for EC50: Severe acute respiratory syndrome coronavirus 2, HeLa-ACE2, CoV-2/HeLa-ACE2 assay, unit uM
[12] = humans; cited from earlier work
[13] = test system: HIV-1; settings: cited from earlier work
[14] = target: pig striatum A2A receptor (Sus scrofa, UniProt K9IW67); settings: cited from earlier work
Sequence of pig striatum A2A receptor (K9IW67 entry or part of it): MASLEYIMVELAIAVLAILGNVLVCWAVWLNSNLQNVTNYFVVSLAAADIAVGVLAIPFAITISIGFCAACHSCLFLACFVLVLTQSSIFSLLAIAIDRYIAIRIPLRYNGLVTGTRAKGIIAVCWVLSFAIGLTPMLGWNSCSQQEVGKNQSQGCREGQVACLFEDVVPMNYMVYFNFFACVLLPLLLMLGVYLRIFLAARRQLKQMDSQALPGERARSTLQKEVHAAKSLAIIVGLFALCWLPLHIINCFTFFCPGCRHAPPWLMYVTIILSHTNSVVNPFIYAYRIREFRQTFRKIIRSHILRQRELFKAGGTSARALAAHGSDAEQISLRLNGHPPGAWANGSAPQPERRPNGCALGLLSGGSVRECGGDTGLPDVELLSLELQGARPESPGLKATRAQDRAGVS

[15] = pig, in vivo; cited from earlier work
[16] = target: adenosine A2 receptors; settings: cited from earlier work
[17] = humans; cited from earlier work; remark: listed apart in the source
[18] = rats; cited from earlier work
[19] = Uninfected host cell cytotoxicity counter screen; format: cell-based, human; settings: human, uninfected HeLa-ACE2 cells; uninfected HeLa-ACE2, 24 h
Protocol: as §1, §2

[20] = dog, IV; cited from earlier work
[21] = test system: SARS-CoV-2; settings: read-out: CPE EC50; cited from earlier work
[22] = mouse, IV; cited from earlier work
[23] = monkey, IV; cited from earlier work
[24] = intravenously, cited from earlier work
[25] = 30 mg/kg and 60 mg/kg oral gavage; cited from earlier work
[26] = test system: SARS-CoV-2; settings: cited from earlier work
[27] = i.v., 28 day, dosed daily; cited from earlier work
[28] = test system: Vero E6 cells; settings: cited from earlier work
[29] = target: T2, cytochrome P450 (CYP) 3A4 (Homo sapiens, UniProt P08684); settings: human liver microsomes; cited from earlier work
T2 construct: from tissue; host or cells: human liver microsomes
T2 sequence (P08684 whole entry): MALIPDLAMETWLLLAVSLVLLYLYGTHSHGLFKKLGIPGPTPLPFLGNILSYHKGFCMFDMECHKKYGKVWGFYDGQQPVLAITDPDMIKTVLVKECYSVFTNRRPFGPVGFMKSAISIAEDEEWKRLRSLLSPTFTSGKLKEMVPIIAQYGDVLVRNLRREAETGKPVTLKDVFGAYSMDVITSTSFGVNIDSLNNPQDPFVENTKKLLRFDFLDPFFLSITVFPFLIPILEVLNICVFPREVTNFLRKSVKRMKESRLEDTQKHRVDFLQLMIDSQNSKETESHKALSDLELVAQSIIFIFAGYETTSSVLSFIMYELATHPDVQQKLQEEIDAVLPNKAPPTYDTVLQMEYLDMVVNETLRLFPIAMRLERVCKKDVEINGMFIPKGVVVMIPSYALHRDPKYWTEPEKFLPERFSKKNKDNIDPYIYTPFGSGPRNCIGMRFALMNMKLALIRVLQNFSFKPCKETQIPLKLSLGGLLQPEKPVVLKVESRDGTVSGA

[30] = test system: HeLa-ACE2 cells; settings: Bakowski et al, 2020; cited from earlier work
[31] = test system: SARS-CoV-2; settings: cited from earlier work; remark: listed apart in the source
[32] = test system: CUTO-3.29; settings: cited from earlier work
[33] = test system: MO-91; settings: cited from earlier work
[34] = test system: tropomyosin-related kinases TrkA, TrkB, and TrkC; settings: cited from earlier work
[35] = test system: KM12; settings: cited from earlier work

For `CS(=O)(=O)c1cccc(C[C@H](NC(=O)c2c(Cl)cc3c(c2Cl)CCN(C(=O)c2ccc4ccoc4c2)C3)C(=O)O)c1` [Lifitegrast, N-[[2-(6-benzofuranylcarbonyl)-5,7-dichloro-1,2,3,4-tetrahydro-6-isoquinolinyl]carbonyl]-3-(methylsulfonyl)-L-phenylalanine], the pIC50 [1] is listed as 8.05 and the pIC50 [2] is listed as 8.53.

In the case of `C[C@H](NP(=O)(OC[C@H]1O[C@@H](n2ccc(N)nc2=O)C(F)(F)[C@@H]1O)Oc1ccccc1)C(=O)OCc1ccccc1` (stereo partly drawn) [NUC-1031, N-(2′-deoxy-2′,2′-difluoro-P-phenyl-5′-cytidylyl)-L-alanine, phenylmethyl ester], the pIC50 [3] is given as 7.40, the pIC50 [4] is given as 7.22 and the pIC50 [5] is given as 7.46. The pIC50 [6] was 7.52.

For `Cc1c(-c2ccc(O)cc2)n(Cc2ccc(OCCN3CCCCC3)cc2)c2ccc(O)cc12` [Pipendoxifene], the CC50 [7] is listed as > 39.8 µM, the safely tolerated dose [8] is listed as “at least 20 mg/kg/day” and the EC90 [9] is listed as 14.3 µM. For the same molecule, the “activity in the HeLa-ACE2 cell-based SARS-CoV-2 assay (in words)” value [9] was “demonstrated activity”, the EC50 ([9]; CoV-2/HeLa-ACE2 assay, unit uM) was 8.42 µM and the EC10 ([9]; derived from the graph) was 5.012 µM. The “Hill coefficient (Nh)” value [9] was 4, the “half-life (t ½)” value ([10]; hamster) was 30 h and the “half-life (t 1/2)” value [10] was 15.8 to 27.3 h. The pEC50 [11] was 5.08, the EC50 [11] was 8.24 µM and the EC90 ([11]; Severe acute respiratory syndrome coronavirus 2, HeLa-ACE2, read-out: EC90 (Hill equation, Equation I)) was 15 µM. The EC90 ([11]; Severe acute respiratory syndrome coronavirus 2, HeLa-ACE2, read-out: EC90 range from both equations) was 14.3 to 15 µM and the safely tolerated dose [12] was “up to 200 mg/daily”.

For `Cc1cccc(C)c1OCC(=O)N[C@@H](Cc1ccccc1)[C@@H](O)C[C@H](Cc1ccccc1)NC(=O)[C@H](C(C)C)N1CCCNC1=O` [Lopinavir, N-[(1S,3S,4S)-4-[[2-(2,6-dimethylphenoxy)acetyl]amino]-3-hydroxy-5-phenyl-1-(phenylmethyl)pentyl]tetrahydro-aS-(1-methylethyl)-2-oxo-1(2H)-pyrimidineacetamide], the pEC50 [13] is given as 7.28 to 8.30.

For `CNC(=O)c1cnn(-c2nc(N)c3ncn([C@@H]4O[C@H](CO)[C@@H](O)[C@H]4O)c3n2)c1` [Regadenoson, 2-[4-[(methylamino)carbonyl]-1H-pyrazol-1-yl]-adenosine], the pKi [14] is listed as 8.96, the half-time to reversal [15] is listed as 1.9 to 2.6 min and the “increase of coronary blood flow” value [15] is listed as 3.4- to 3.8 fold.

In the case of `CNC(=O)[C@H]1O[C@@H](n2cnc3c(NCc4cccc(I)c4)ncnc32)[C@H](O)[C@@H]1O` [Piclidenoson, 1-deoxy-1-[6-[[(3-iodophenyl)methyl]amino]-9H-purin-9-yl]-N-methyl-β-D-ribofuranuronamide], the pKi [16] is given as 5.51.

For `Cc1c(-c2ccc(O)cc2)n(Cc2ccc(OCCN3CCCCCC3)cc2)c2ccc(O)cc12` [Bazedoxifene], the safely tolerated dose [17] is given as 20 mg/day and the safely tolerated dose [18] is given as 100 mg/kg/day.

For `CNCc1ccc(-c2cc(-c3nc(-c4ccc(S(=O)(=O)C(C)C)cc4)cnc3N)on2)cc1` [Berzosertib], the CC50 at 24 h [19] is listed as 3.14 µM, the “systemic clearance (CL)” value [20] is listed as 0.78 L/h/kg and the pEC50 [21] is listed as 6.15. For the same molecule, the “systemic clearance (CL)” value [22] was 4.92 L/h/kg, the “activity in the HeLa-ACE2 cell-based SARS-CoV-2 assay (in words)” value [9] was “demonstrated activity” and the “Hill coefficient (Nh)” value [9] was 1.485. The “systemic clearance (CL)” value [23] was 1.74 L/h/kg, the “safe and well tolerated clinical dose, no DLTs observed” value ([24]; once-weekly) was 480 mg/m2 and the “safe and well tolerated clinical dose, no DLTs observed” value ([24]; twice weekly) was 240 mg/m2. For the same molecule, the “tolerability (in words)” value [25] was “no adverse effects or toxicity”, the “half-life (t 1/2)” value [10] was “about 17 hours” and the pIC50 [26] was > 7.60. For the same molecule, the pEC50 [11] was 6.94, the EC50 [11] was 0.114 µM and the STD10 [27] was 30 mg/kg/day. For the same molecule, the CC50 [28] was 11.2 µM and the “enzyme mainly metabolizing the drug” value [29] was “cytochrome P450 (CYP) 3A4”.

In the case of `Nc1nc(Nc2ccc3c(c2)CC[C@@H](N2CCCC2)CC3)nn1-c1cc2c(nn1)-c1ccccc1CCC2` [R-428], the CC50 [30] is listed as > 40 µM, the “synergy score with remdesivir against SARS-CoV-2” value ([31]; Bakowski et al, 2020) is listed as 7.22 and the pEC50 ([31]; ReFRAME screen, same methods (Bakowski et al, 2020)) is listed as 5.54.

In the case of `O=C(Nc1cnn2ccc(N3CCC[C@@H]3c3cc(F)ccc3F)nc12)N1CC[C@H](O)C1` [LOXO-101, (3S)—N-[5-[(2R)-2-(2,5-difluorophenyl)-1-pyrrolidinyl]pyrazolo[1,5-a]pyrimidin-3-yl]-3-hydroxy-1-pyrrolidinecarboxamide], the pIC50 [32] is given as > 7.00, the pIC50 [33] is given as > 8.00 and the pIC50 [34] is given as 7.70 to 8.70. The pIC50 [35] was > 8.00.
